Results as given in patent publication US11040951B2, “Methods and compositions relating to genotoxin colibactin” (PRESIDENT AND FELLOWS OF HARVARD COLLEGE, priority 2018, dated 2021).
Entries after “also recorded” stand apart in the source; their conditions may differ. Read-outs that look alike come from different tables or passages of the source.

Legend:
[1] = system: ClbPFL (full-length ClbP); assay: In vitro cleavage of synthetic substrates by ClbPFL, LC-MS detection; type: biochemical, E. coli; conditions: LC-MS detection of cleavage product
Experimental: (§1) The top graph of FIG. 2A depicts LC-MS detection of the prodrug scaffold ([M+H]^+: 343.2597 m/z) released by the hydrolysis of (1) by ClbP in vitro. Reactions were carried out in 50 mM Tris pH 8.0, 200 mM NaCl, 0.1 μM enzyme. 0.02% w/v DDM was added for all reactions involving full-length ClbP (Error bars are SD, n=3). The bottom graph of FIG. 2B depicts kinetic analysis of ClbP acting on synthetic precolibactin-mimic substrate (1). Note that this substrate is insoluble above 200 μM under assay conditions. Rates were calculated by quenching reactions in 1-minute intervals in methanol and quantifying the amount of substrate cleaved by derivatization of the L-alanine product with o-phthaldialdehye (OPA) and fluorescence detection (see Examples) (Error bars are SD, n=3). Substrate is insoluble above 200 μM under assay conditions. All kinetics experiments are averages of 3 independent replicates, reactions were carried out in 50 mM Sodium Phosphate pH 8.0, 200 mM NaCl, 0.02% w/v DDM, 0.1 μM enzyme. The bottom graph of FIG. 2B depicts the approach and substrates sampled in this SAR study. All kinetics experiments are averages of 3 independent replicates, reactions were carried out in 50 mM Sodium Phosphate pH 8.0, 200 mM NaCl, 0.02% w/v DDM, 0.1 μM ClbP-FL (full length) (also referred to herein as ClbPFL). All errors are ±SD.
Optical densities of E. coli cultures were determined with a DU 730 Life Sciences UV/Vis spectrophotometer (Beckman Coulter, Indianapolis, Ind.) by measuring absorbance at 600 nm. Ultracentrifugation was performed on a Beckman-Coulter Optima XE-90 Ultracentrifuge fitted with a type 45 Ti rotor in 70 mL polycarbonate tubes. Solvents and formic acid used for LC-MS were B & J Brand High Purity Solvents (Honeywell Research Chemicals). High-resolution LC-MS analyses of enzyme assays and synthetic compounds were performed on an Agilent 6530 Q-TOF Mass Spectrometer fitted with a dual-spray electrospray ionization (ESI) source. The capillary voltage was set to 3.5 kV, the fragmentor voltage to 175 V, the skimmer voltage to 65 V, and the Oct 1 RF to 750 V. The drying gas temperature was maintained at 275° C. with a flow rate of 8 L/min and a nebulizer pressure of 35 psi. A standard calibrant mix was introduced continuously during all experiments via the dual-spray ESI source. For analytical liquid chromatography, unless otherwise noted, experiments were performed using an Agilent Technologies 1200 series LC on a Hypersil GOLDaq™ C18 reverse phase column (50×3 mm, Thermo Scientific) with the following elution conditions: a gradient from 35% solvent A:65% solvent B to 100% solvent A over 5 minutes, holding at 100% A for 2 minutes, followed by a gradient back to 35% solvent A over 1 minute and holding at 35% solvent A for 3.5 minutes (solvent A: acetonitrile+0.1% formic acid; solvent B: water+0.1% formic acid; flow rate=0.4 mL/minute; injection volume=10 μL). All experiments were performed in positive ion mode, and the masses detected corresponded to [M+H]+ ions unless otherwise noted. Masses were found within 5 ppm of the expected [M+H]+ masses.
For all in vitro assays involving ClbPFL and ClbFL-S95A “Tris assay buffer” refers to a buffer composed of 50 mM Tris, 200 mM NaCl, 0.02% w/v DDM, pH 8.0. Likewise, “phosphate assay buffer” refers to 50 mM sodium phosphate, 200 mM NaCl, 0.02% w/v DDM, pH 8.0.

ClbPFL-S95A = assay: In vitro cleavage of synthetic substrates by inactive mutant, LC-MS detection; type: biochemical, E. coli
Experimental: as §1
(§2) Optical densities of E. coli cultures were determined with a DU 730 Life Sciences UV/Vis spectrophotometer (Beckman Coulter, Indianapolis, Ind.) by measuring absorbance at 600 nm. Ultracentrifugation was performed on a Beckman-Coulter Optima XE-90 Ultracentrifuge fitted with a type 45 Ti rotor in 70 mL polycarbonate tubes. Solvents and formic acid used for LC-MS were B & J Brand High Purity Solvents (Honeywell Research Chemicals). High-resolution LC-MS analyses of enzyme assays and synthetic compounds were performed on an Agilent 6530 Q-TOF Mass Spectrometer fitted with a dual-spray electrospray ionization (ESI) source. […] All experiments were performed in positive ion mode, and the masses detected corresponded to [M+H]+ ions unless otherwise noted. […]

ClbPpep = assay: In vitro cleavage of synthetic substrates by isolated peptidase domain, LC-MS detection; type: biochemical, E. coli
Experimental: as §1, §2

ClbPFL = assay: In vitro kinetics assay with ClbPFL (o-phthaldialdehyde derivatization); type: biochemical, E. coli
Experimental: In vitro kinetics assays with ClbPFL (comparison of substrates 2, 3, and 4 using o-phthaldialdehyde derivatization): Assays were run in triplicate in 1.5 mL deep-well plates. ClbPFL-CHis10 was defrosted from −80° C. stocks on ice, then buffer exchanged into phosphate assay buffer using Zeba Spin 40K MWCO desalting columns (ThermoFisher Scientific). The enzyme was then diluted to 0.6 μM in phosphate assay buffer and 50 μL of this stock was deposited in the appropriate wells. The substrate of interest was prepared in a 2-fold dilution series in phosphate assay buffer. Reactions were initiated by the addition of 250 μL of substrate stock to each assay well to a final concentration of 0.1 μM ClbP, 12.5-200 μM substrate, 3% DMSO and incubated at 25° C. Reaction mixtures were pipetted briefly to mix. […] 50 μL of each supernatant from the quenched reactions and standard curves were then transferred to the appropriate wells, pipetted once to mix, and then fluorescence was immediately measured on a plate reader (Bio-Tek Synergy HTX multimode plate reader, measurement settings −360/40 nm excitation filter, 440/20 nm emission filter, detector gain: 35). Fluorescence was measured every 30 seconds for 10 minutes and the maximum value achieved for each well was used for calculations. […]

[2] = Solubility and membrane permeability as observed in the assays; type: physicochemical; conditions: under assay conditions

CCCCCCCCCCCCCC(=O)N[C@H](CC(N)=O)C(=O)N[C@@H](C)CCC(=O)CC(=O)NC1(C(=O)O)CC1 [(1)]
cleavage by ClbPFL in vitro [1]: rapidly in vitro
cleavage by ClbPFL-S95A in vitro (ClbPFL-S95A): no cleavage activity
cleavage by ClbPFL-S95A in vitro (ClbPFL-S95A; listed as 2): no activity
cleavage by ClbPpep in vitro (ClbPpep): no cleavage activity
cleavage by ClbPpep in vitro (ClbPpep; listed as 2): no activity; also recorded: cannot process
kinetic parameters / hydrolysis efficiency compared with the reference substrate (ClbPFL): comparable
solubility limit [2]: ≤ 200 µM
